For 17 compounds, inhibition results are on record in patent EP0555537B1, “Endothelin antagonists” (BANYU PHARMACEUTICAL CO., LTD., priority 1991, dated 1993).

The experiment addresses T1, ETB receptor (Sus scrofa, UniProt P35463).
T1 construct: ETB receptors of porcine cerebellum membrane suspension used in the present experiments; from tissue; host or cells: porcine cerebellum membrane fraction
T1 sequence (P35463 27-443): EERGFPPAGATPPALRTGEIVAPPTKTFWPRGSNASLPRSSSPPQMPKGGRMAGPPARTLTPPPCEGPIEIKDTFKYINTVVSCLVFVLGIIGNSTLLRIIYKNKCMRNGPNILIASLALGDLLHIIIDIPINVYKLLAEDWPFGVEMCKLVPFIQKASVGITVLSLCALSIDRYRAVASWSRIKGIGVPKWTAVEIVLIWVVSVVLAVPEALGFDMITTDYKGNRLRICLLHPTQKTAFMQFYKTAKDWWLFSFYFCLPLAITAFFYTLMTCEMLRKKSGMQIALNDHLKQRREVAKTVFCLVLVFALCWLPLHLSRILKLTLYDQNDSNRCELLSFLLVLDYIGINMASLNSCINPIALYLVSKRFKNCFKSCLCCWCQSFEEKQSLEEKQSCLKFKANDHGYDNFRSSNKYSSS
In words: Endothelin binding inhibition test (^125I-endothelin-1, porcine cerebellum membrane suspension). As to conditions: 1.1 µM of the test compound, triplicate. Here is the method:
The cerebellum of porcine was homogenized in a buffer solution of 10 mM MOPS, pH 7.4, at 4°C by a polytron. To the homogenate, sucrose was added to a concentration of 20%, and the mixture was centrifuged at 1,000 x g for 15 minutes, and the supernatant was further centrifuged at 10,000 x g for 15 minutes. The supernatant thereof was further centrifuged at 90,000 x g for 40 minutes. The membrane precipitate thereby obtained was suspended in a buffer solution of 5 mM HEPES/Tris, pH 7.4, at a concentration of 3.3 mg/ml.
Then, 16 µl of this membrane suspension was added to 340 µl of 50 mM tris/HCl buffer, pH 7.4, containing […] calcium chloride, 10 µM magnesium chloride, 0.1 mM PMSF, 1 µM pepstatin A, 2 µM leupeptin, 1 mM 1,10-phenanthroline and 0.1% bovine serum albumin. To this suspension, 4 µl of (A) endothelin-1 (for nonspecific binding; 0.2 µM as the final concentration), (B) buffer solution A (for total control binding), or (C) a test compound (1.1 µM as the final concentration), was added. Further, to each suspension, 40 µl of ^125I-endothelin-1 (12000-18000 cpm) was added. These mixtures were incubated at 25°C for 4 hours, then subjected to filtration on a glass filter GF/C and then washed with 5 mM HEPES/Tris, pH 7.4, containing 0.3% bovine serum albumin. Then, the radioactivity trapped by the glass filter was measured, and the ^125I-endothelin-1 binding inhibition D (%) at 1.1 µM of the test compound was determined by the following equation. D(%) = 100 -((C) - (A))/((B) - (A))× 100 [formula]
Each test was performed in triplicate.
The test compounds are indicated by compound Nos.

Numbered stars: 1 amine (or outer) side, 2 acyl side, 3 side chain; on linkers, the order of the positions; unused ones are H or OH. Square brackets hold non-standard residues; d marks the D form. Peptide text beside a SMILES is read from it. * marks the point of attachment. dNle = CCCC[C@@H](N)C(=O)O; Piperidide = C1CCN(*)CC1; Pyrrolidide = C1CCN(*)C1; dAbu = CC[C@@H](N)C(=O)O; Boc = CC(C)(C)OC(=O)*; CO = O=C([*:1])[*:2]; NHtBu = CC(C)(C)N*; Moc = COC(=O)*

One may read the inhibition as the relative decrease from the control value, in per cent. Read a high inhibition as a strong effect. As to `CCCC[C@@H](NC(=O)[C@@H](Cc1cn(C(=O)OCC)c2ccccc12)NC(=O)[C@H](CC(C)C)NC(=O)Nc1ccccc1Cl)C(=O)O` [Compound 2], the inhibition at 1.1 µM was found to be 97%. The same measure for `CCCC[C@@H](NC(=O)[C@@H](Cc1c(Cl)[nH]c2ccccc12)NC(=O)[C@H](CC(C)C)NC(=O)N1CCCCCC1)C(=O)O` [Compound 68]: 93%; for `CCCC[C@@H](NC(=O)[C@@H](Cc1cn(C(=O)OC)c2ccccc12)NC(=O)[C@H](CC(C)C)NC(=O)N1CCSC1)C(=O)O` [Compound 13]: 72%. For `CCCC[C@@H](NC(=O)[C@@H](Cc1cn(C(=O)OC)c2ccccc12)NC(=O)[C@H](CC(C)C)NC(=O)N1CCCCCCC1)C(=O)O` [Compound 29], the inhibition at 1.1 µM is 99%.

Consider `CCCC[C@@H](NC(=O)[C@@H](Cc1cn(C(=O)OC)c2ccccc12)NC(=O)[C@H](CC(C)C)NC(=O)N(CCC)C1CCCC1)C(=O)O` [Compound 17], for which 1.1 µM produced 95% inhibition. For `CCCC[C@@H](NC(=O)[C@@H](Cc1cn(C(=O)OC)c2ccccc12)NC(=O)[C@H](CC(C)C)NC(=O)N(C(C)C)C(C)C)C(=O)O` [Compound 14] the value was 99%. `CCCC[C@@H](NC(=O)[C@@H](Cc1cn(C(=O)OC)c2ccccc12)NC(=O)[C@H](CC(C)C)NC(=O)NC(C)(C)C)C(=O)O` [Compound 27] ({NHtBu-CO}-Leu-[dW](Moc)-[dNle]-OH) came in with an inhibition at 1.1 µM of 91%. `CCCC[C@@H](NC(=O)[C@@H](Cc1cn(C(=O)OC)c2ccccc12)NC(=O)[C@H](CC(C)C)NC(=O)NC12CC3CC(CC(C3)C1)C2)C(=O)O` [Compound 25] showed an inhibition at 1.1 µM of 97%. As for `CCCC[C@@H](NC(=O)[C@@H](Cc1cn(C(=O)OC)c2ccccc12)NC(=O)[C@H](CC(C)C)NC(=O)N1CCSCC1)C(=O)O` [Compound 10], the inhibition at 1.1 µM turned out to be 89%. Turning to `CCCC[C@@H](NC(=O)[C@@H](Cc1cn(C(=O)OC)c2ccccc12)NC(=O)[C@H](CC(C)C)NC(=O)N1CCCCCC1)C(=O)O` [Compound 9], testing at 1.1 µM gave an inhibition of 99%. For `CCCC[C@@H](NC(=O)[C@@H](Cc1cn(C(=O)OC)c2ccccc12)NC(=O)[C@H](CC(C)C)NC(=O)Nc1ccccc1Cl)C(=O)O` [Compound 1] the value was 99%; for `CCCC[C@@H](NC(=O)[C@@H](Cc1cn(C(=O)OC)c2ccccc12)NC(=O)[C@H](CC(C)C)NC(=O)N1CCCC1)C(=O)O` [Compound 11] ({Pyrrolidide-CO}-Leu-[dW](Moc)-[dNle]-OH), 73%.

With `CC[C@@H](NC(=O)[C@@H](Cc1cn(C(=O)OC)c2ccccc12)NC(=O)[C@H](CC(C)C)NC(=O)OC(C)(C)C)C(=O)O` [Compound 26] (Boc-Leu-[dW](Moc)-[dAbu]-OH), the inhibition at 1.1 µM was determined as 71%. The compound `CCCC[C@@H](NC(=O)[C@@H](Cc1c(Cl)[nH]c2ccccc12)NC(=O)[C@H](CC(C)C)NC(=O)N1C(C)CCCC1C)C(=O)O` (some centres unmarked) [Compound 67] returned an inhibition at 1.1 µM of 97%. With `CCCC[C@@H](NC(=O)[C@@H](Cc1cn(C(=O)OC)c2ccccc12)NC(=O)[C@H](CC(C)C)NC(=O)N1CCCCCCC1)C(=O)OC(C)(C)C` [Compound 28], at 1.1 µM the inhibition was 92%. Turning to `CCCC[C@@H](NC(=O)[C@@H](Cc1cn(C(=O)OC)c2ccccc12)NC(=O)[C@H](CC(C)C)NC(=O)Nc1c(Cl)cccc1Cl)C(=O)O` [Compound 3], the inhibition at 1.1 µM turned out to be 94%. `CCCC[C@@H](NC(=O)[C@@H](Cc1cn(C(=O)OC)c2ccccc12)NC(=O)[C@H](CC(C)C)NC(=O)N1CCCCC1)C(=O)O` [Compound 12] ({Piperidide-CO}-Leu-[dW](Moc)-[dNle]-OH) gave an inhibition at 1.1 µM of 96%.
